Paper PMC7782168, “Synthesis, telomerase inhibitory and anticancer activity of new 2-phenyl-4H-chromone derivatives containing 1,3,4-oxadiazole moiety” (Journal of Enzyme Inhibition and Medicinal Chemistry, 2020)

Legend:
[1] = tested on: SMMC-7721 (human hepatoma cell); assay: In vitro anticancer (antiproliferative) MTT assay, SMMC-7721; assay type: cell-based
Experimental: (§1) A375, MDA-MB-231, MGC-803, SMMC-7721, SGC-7901 and L-02 cell lines were cultured in DMEM medium supplemented with 10% (V/V) heat-inactivated fetal bovine serum (FBS) (Biological Industries, Israel) along with 100 U/mL penicillin and […] streptomycin (Beyotime, China). Cells were grown in a humidified 5% CO2 atmosphere at 37 °C and maintained in a logarithmic growth phase for all experiments.
(§2) 2.5. Anticancer assay[23]

[2] = tested on: SGC-7901 (human gastric cancer cell); assay: In vitro anticancer (antiproliferative) MTT assay, SGC-7901; assay type: cell-based
Experimental: as §1, §2

[3] = tested on: human normal liver cell (L-02); assay: Toxicity against human normal liver cells, MTT assay; assay type: cell-based; details: triplicate
Experimental: as §1, §2
In order to determine the selective cytotoxicity of selected compounds, we subsequently conducted a proliferative inhibition assay with human normal liver cell (L-02). […] Therefore, in combination with the above points, it is quite meaningful to further explore the mechanisms of this compound.

[4] = tested on: MDA-MB-231 (human breast cancer cell); assay: In vitro anticancer (antiproliferative) MTT assay, MDA-MB-231; assay type: cell-based
Experimental: as §1, §2

[5] = tested on: A375 (human melanoma cell); assay: In vitro anticancer (antiproliferative) MTT assay, A375; assay type: cell-based
Experimental: as §1, §2

[6] = target: T1, telomerase (Homo sapiens, UniProt O14746); assay: Telomerase activity assay using MGC-803 cells extract; assay type: biochemical; details: mean ± SD
T1 construct: assayed for telomerase activity using MGC-803 cells extract; endogenous in cells; host or cells: MGC-803 cell extract

[7] = tested on: MGC-803 (human gastric cancer cell); assay: In vitro anticancer (antiproliferative) MTT assay, MGC-803; assay type: cell-based
Experimental: as §1, §2

[8] = Homo sapiens, SMMC-7721, mean ± SD of three experiments in triplicate
[9] = Homo sapiens, SGC-7901, mean ± SD of three experiments in triplicate
[10] = Homo sapiens, MDA-MB-231, mean ± SD of three experiments in triplicate
[11] = Homo sapiens, A-375, mean ± SD of three experiments in triplicate
[12] = Homo sapiens, MGC-803, mean ± SD of three experiments in triplicate
[13] = mean ± SD of three experiments in triplicate

T1 sequence (O14746 whole entry): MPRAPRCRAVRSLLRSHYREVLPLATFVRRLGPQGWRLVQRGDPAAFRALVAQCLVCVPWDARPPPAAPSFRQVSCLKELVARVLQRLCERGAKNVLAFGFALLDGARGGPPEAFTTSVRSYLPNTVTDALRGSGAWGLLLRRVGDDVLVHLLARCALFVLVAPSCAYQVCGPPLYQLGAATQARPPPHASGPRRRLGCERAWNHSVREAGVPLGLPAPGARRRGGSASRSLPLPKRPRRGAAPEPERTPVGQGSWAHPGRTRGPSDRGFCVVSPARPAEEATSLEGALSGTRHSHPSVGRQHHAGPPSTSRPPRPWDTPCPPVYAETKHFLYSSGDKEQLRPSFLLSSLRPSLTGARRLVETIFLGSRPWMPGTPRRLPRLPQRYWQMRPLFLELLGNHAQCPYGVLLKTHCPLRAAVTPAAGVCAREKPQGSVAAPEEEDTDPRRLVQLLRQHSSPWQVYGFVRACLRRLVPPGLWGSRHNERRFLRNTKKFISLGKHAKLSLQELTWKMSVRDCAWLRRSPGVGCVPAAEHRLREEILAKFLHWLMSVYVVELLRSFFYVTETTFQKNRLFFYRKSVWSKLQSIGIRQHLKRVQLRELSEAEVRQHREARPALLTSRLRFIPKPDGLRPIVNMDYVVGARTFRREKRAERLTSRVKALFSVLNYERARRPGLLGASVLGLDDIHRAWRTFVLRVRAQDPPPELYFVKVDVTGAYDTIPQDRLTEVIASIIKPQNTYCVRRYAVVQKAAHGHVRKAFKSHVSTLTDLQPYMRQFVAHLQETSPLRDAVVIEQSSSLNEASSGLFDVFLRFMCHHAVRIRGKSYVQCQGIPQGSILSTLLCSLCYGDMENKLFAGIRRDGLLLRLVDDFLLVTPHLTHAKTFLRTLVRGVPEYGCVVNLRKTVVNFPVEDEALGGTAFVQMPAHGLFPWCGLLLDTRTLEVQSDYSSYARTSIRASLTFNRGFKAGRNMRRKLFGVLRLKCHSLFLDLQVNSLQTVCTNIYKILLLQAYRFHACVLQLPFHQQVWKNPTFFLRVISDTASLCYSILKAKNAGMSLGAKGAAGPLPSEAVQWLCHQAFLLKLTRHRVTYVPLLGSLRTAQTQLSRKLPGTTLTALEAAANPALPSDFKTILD
T1 sequence (O60832 2-514 partner limits assumed): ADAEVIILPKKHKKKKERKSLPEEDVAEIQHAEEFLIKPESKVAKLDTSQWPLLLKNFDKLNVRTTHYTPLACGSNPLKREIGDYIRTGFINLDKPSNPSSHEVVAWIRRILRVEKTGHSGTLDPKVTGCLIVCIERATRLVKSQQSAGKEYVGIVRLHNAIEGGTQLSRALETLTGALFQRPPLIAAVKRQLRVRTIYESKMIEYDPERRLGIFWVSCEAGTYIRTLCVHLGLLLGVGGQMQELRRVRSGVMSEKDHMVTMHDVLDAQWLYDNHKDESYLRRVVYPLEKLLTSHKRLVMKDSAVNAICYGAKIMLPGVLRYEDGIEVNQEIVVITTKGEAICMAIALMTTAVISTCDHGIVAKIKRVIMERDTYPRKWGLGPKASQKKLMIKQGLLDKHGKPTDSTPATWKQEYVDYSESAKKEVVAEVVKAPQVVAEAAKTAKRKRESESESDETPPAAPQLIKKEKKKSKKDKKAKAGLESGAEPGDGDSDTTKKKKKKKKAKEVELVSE
T1 sequence (Q9NPE3 whole entry partner): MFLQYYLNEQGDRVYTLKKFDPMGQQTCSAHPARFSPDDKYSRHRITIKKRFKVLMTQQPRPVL
T1 sequence (Q9NX24 whole entry partner): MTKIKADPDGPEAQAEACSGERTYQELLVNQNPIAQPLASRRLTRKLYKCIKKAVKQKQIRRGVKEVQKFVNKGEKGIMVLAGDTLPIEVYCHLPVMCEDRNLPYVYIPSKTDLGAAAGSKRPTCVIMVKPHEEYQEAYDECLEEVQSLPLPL
T1 sequence (Q9NY12 whole entry partner): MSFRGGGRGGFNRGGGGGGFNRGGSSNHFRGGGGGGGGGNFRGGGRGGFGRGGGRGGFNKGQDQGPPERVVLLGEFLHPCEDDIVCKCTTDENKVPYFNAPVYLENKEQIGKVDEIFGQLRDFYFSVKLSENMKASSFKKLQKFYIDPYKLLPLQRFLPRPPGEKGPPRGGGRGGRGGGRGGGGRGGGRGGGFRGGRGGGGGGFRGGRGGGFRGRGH

Structure (SMILES)	IC50 [1, 8] [µM]	IC50 [2, 9] [µM]	IC50 [3] [µM]	IC50 [4, 10] [µM]	IC50 [5, 11] [µM]	melting point [°C]	IC50 [6] [µM]	IC50 [7, 12] [µM]	IC50 [1, 13] [µM]	IC50 [2, 13] [µM]	IC50 [4, 13] [µM]	IC50 [5, 13] [µM]	IC50 [7, 13] [µM]
COc1cc(OC)c2c(=O)c(OCC(=O)Nc3nnc(-c4ccc(F)cc4)o3)c(-c3cc(OC)c(OC)c(OC)c3)oc2c1 [A2, 2–(5,7-dimethoxy-4-oxo-2–(3,4,5-trimethoxyphenyl)-4H-chromen-3-yloxy)-N-(5–(4-fluorophenyl)-1,3,4-oxadiazol-2-yl)acetamide]	8.07 ± 1.3	56.9 ± 1.24	1370 ± 430	25.1 ± 2.1	11 ± 1.54	221 to 223	0.77 ± 0.13	17.3 ± 2.21					
COc1cc(OC)c2c(=O)c(OCC(=O)Nc3nnc(-c4ccc(Cl)cc4)o3)c(-c3cc(OC)c(OC)c(OC)c3)oc2c1 [A5, N-(5–(4-chlorophenyl)-1,3,4-oxadiazol-2-yl)-2–(5,7-dimethoxy-4-oxo-2–(3,4,5-trimethoxyphenyl)-4H-chromen-3-yloxy)acetamide]	> 100	25.4 ± 0.59	1990 ± 130	> 100	20.1 ± 0.62	227 to 229	0.81 ± 0.13	15.2 ± 0.41					
COc1cc(OC)c2c(=O)c(OCC(=O)Nc3nnc(-c4ccc(C(F)(F)F)cc4)o3)c(-c3cc(OC)c(OC)c(OC)c3)oc2c1 [A16, 2–(5,7-dimethoxy-4-oxo-2–(3,4,5-trimethoxyphenyl)-4H-chromen-3-yloxy)-N-(5–(4-(trifluoromethyl)phenyl)-1,3,4-oxadiazol-2-yl)acetamide]	> 100	> 100	900 ± 110	> 100	10.1 ± 0.52	231 to 233	0.62 ± 0.11	> 100					
COc1cc(OC)c2c(=O)c(OCC(=O)Nc3nnc(-c4cccc(OC(F)(F)F)c4)o3)c(-c3cc(OC)c(OC)c(OC)c3)oc2c1 [A20, 2–(5,7-dimethoxy-4-oxo-2–(3,4,5-trimethoxyphenyl)-4H-chromen-3-yloxy)-N-(5–(3-(trifluoromethoxy)phenyl)-1,3,4-oxadiazol-2-yl)acetamide]	> 100	10.2 ± 0.65	620 ± 240	19.5 ± 1	8.92 ± 0.69	221 to 223	0.92 ± 0.17	6.29 ± 0.36					
COc1cc(OC)c2c(=O)c(OCC(=O)Nc3nnc(-c4ccc(OC)c(OC)c4)o3)c(-c3cc(OC)c(OC)c(OC)c3)oc2c1 [A27, 2–(5,7-dimethoxy-4-oxo-2–(3,4,5-trimethoxyphenyl)-4H-chromen-3-yloxy)-N-(5–(3,4-dimethoxyphenyl)-1,3,4-oxadiazol-2-yl)acetamide]	> 100	> 100	1380 ± 210	> 100	> 100	220 to 222	0.32 ± 0.07	> 100					
COc1cccc2c1C(=O)c1c(O)c3c(c(O)c1C2=O)C[C@@](O)(C(=O)CO)C[C@@H]3O[C@H]1C[C@H](N)[C@H](O)[C@H](C)O1 [ADM, Adriamycin, reference compound]	0.79 ± 0.13	0.82 ± 0.43		0.51 ± 0.12	0.58 ± 0.2			0.42 ± 0.08					
COc1cccc(-c2nnc(NC(=O)COc3c(-c4ccc(OC)c(OC)c4)oc4cc(OC)cc(OC)c4c3=O)o2)c1 [B23, 2–(2-(3,4-dimethoxyphenyl)-5,7-dimethoxy-4-oxo-4H-chromen-3-yloxy)-N-(5–(3-methoxyphenyl)-1,3,4-oxadiazol-2-yl)acetamide]						205 to 207	2.44 ± 0.42						
COc1cc(OC)c2c(=O)c(OCC(=O)Nc3nnc(-c4ccc(F)c(Cl)c4)o3)c(-c3ccc(OC)c(OC)c3)oc2c1 [B24, N-(5–(3-chloro-4-fluorophenyl)-1,3,4-oxadiazol-2-yl)-2–(2-(3,4-dimethoxyphenyl)-5,7-dimethoxy-4-oxo-4H-chromen-3-yloxy)acetamide]						232 to 234	4.17 ± 0.7						
COc1cc(OC)c2c(=O)c(OCC(=O)Nc3nnc(-c4ccc(Cl)c(Cl)c4)o3)c(-c3ccc(OC)c(OC)c3)oc2c1 [B25, N-(5–(3,4-dichlorophenyl)-1,3,4-oxadiazol-2-yl)-2–(2-(3,4-dimethoxyphenyl)-5,7-dimethoxy-4-oxo-4H-chromen-3-yloxy)acetamide]						230 to 232	> 60						
COc1cc(OC)cc(-c2nnc(NC(=O)COc3c(-c4ccc(OC)c(OC)c4)oc4cc(OC)cc(OC)c4c3=O)o2)c1 [B26, N-(5–(3,5-dimethoxyphenyl)-1,3,4-oxadiazol-2-yl)-2–(2-(3,4-dimethoxyphenyl)-5,7-dimethoxy-4-oxo-4H-chromen-3-yloxy)acetamide]						200 to 202	3.99 ± 0.85						
COc1cc(OC)c2c(=O)c(OCC(=O)Nc3nnc(-c4ccc(OC)c(OC)c4)o3)c(-c3ccc(OC)c(OC)c3)oc2c1 [B27, N-(5–(3,4-dimethoxyphenyl)-1,3,4-oxadiazol-2-yl)-2–(2-(3,4-dimethoxyphenyl)-5,7-dimethoxy-4-oxo-4H-chromen-3-yloxy)acetamide]	> 100	> 100	1670 ± 250	> 100	> 100	151 to 153	0.51 ± 0.1	> 100					
COc1cc(OC)c2c(=O)c(OCC(=O)Nc3nnc(-c4cccc5ccccc45)o3)c(-c3ccc(OC)c(OC)c3)oc2c1 [B28, 2–(2-(3,4-dimethoxyphenyl)-5,7-dimethoxy-4-oxo-4H-chromen-3-yloxy)-N-(5-(naphthalen-1-yl)-1,3,4-oxadiazol-2-yl)acetamide]						230 to 232	1.19 ± 0.18						
COc1cc(OC)c2c(=O)c(OCC(=O)Nc3nnc(-c4ccc5c(c4)OCCO5)o3)c(-c3ccc(OC)c(OC)c3)oc2c1 [B29, N-(5–(2,3-dihydrobenzo[b][1, 4]dioxin-6-yl)-1,3,4-oxadiazol-2-yl)-2–(2-(3,4-dimethoxyphenyl)-5,7-dimethoxy-4-oxo-4H-chromen-3-yloxy)acetamide]						228 to 230	2.98 ± 0.27						
COc1cc(OC)c2c(=O)c(OCC(=O)Nc3nnc(-c4cccc(OCc5ccccc5)c4)o3)c(-c3ccc(OC)c(OC)c3)oc2c1 [B30, N-(5–(3-(benzyloxy)phenyl)-1,3,4-oxadiazol-2-yl)-2–(2-(3,4-dimethoxyphenyl)-5,7-dimethoxy-4-oxo-4H-chromen-3-yloxy)acetamide]						156 to 158	> 60						
COc1cc(OC)c2c(=O)c(OCC(=O)Nc3nnc(-c4ccco4)o3)c(-c3ccc(OC)c(OC)c3)oc2c1 [B31, 2–(2-(3,4-dimethoxyphenyl)-5,7-dimethoxy-4-oxo-4H-chromen-3-yloxy)-N-(5-(furan-2-yl)-1,3,4-oxadiazol-2-yl)acetamide]						233 to 235	2.82 ± 0.25						
COc1cc(OC)c2c(=O)c(OCC(=O)Nc3nnc(-c4cccs4)o3)c(-c3ccc(OC)c(OC)c3)oc2c1 [B32, 2–(2-(3,4-dimethoxyphenyl)-5,7-dimethoxy-4-oxo-4H-chromen-3-yloxy)-N-(5-(thiophen-2-yl)-1,3,4-oxadiazol-2-yl)acetamide]						238 to 240	3.75 ± 0.39						
COc1cc(OC)c2c(=O)c(OCC(=O)Nc3nnc(/C=C/c4ccccc4)o3)c(-c3ccc(OC)c(OC)c3)oc2c1 [B33, (E)-2–(2-(3,4-dimethoxyphenyl)-5,7-dimethoxy-4-oxo-4H-chromen-3-yloxy)-N-(5-styryl-1,3,4-oxadiazol-2-yl)acetamide]	> 100	> 100	1010 ± 140	> 100	> 100	226 to 228	0.97 ± 0.2	> 100					
C/C(=C\C(=O)Nc1ccccc1C(=O)O)c1ccc2ccccc2c1 [BIBR1532, reference compound]									> 100	> 100	> 100	57.58 ± 0.21	> 100
